Measurements: patent publication US20250108119A1, “NOVEL STEROID PAYLOADS, STEROID LINKERS, ADCs CONTAINING AND USE THEREOF” (IMMUNEXT, INC., priority 2021, published 2025)

Tests used:
[1] = test system: human PBMC; experiment: Cytokine production (IL-1β, IL-6) at 24 hr by human PBMC incubated with 1 ng/mL LPS; assay type: cell-based; details: anti-VISTA conjugates, serial dilutions with respect to total ADC concentration (20-0.003 μg/mL), equivalent or reduced DAR
How it was run: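 Human PBMC were stimulated with 1 ng/mL LPS together with serial dilutions of steroid payloads or glucocorticoid conjugates, spanning up to 8,000 nM down to 0.032 nM depending on the series. IL-1β and IL-6 were measured at 24 hr from technical duplicates, with 1-2 donors. Values above the ULOQ were extrapolated.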

[2] = test system: FKBP5; experiment: FKBP5 transcription in peritoneal resident macrophages (PRM) and spleen cells after in vivo treatment; set-up: species or system hVISTA mice; details: linker payloads as anti-VISTA conjugates
[3] = test system: peritoneal resident macrophages (PRM); experiment: In vivo treatment/ex vivo PRM activation, TNFα and IL-6 in supernatant; set-up: species or system hVISTA mice
[4] = test system: LPS stimulated human PBMCs; experiment: LPS stimulated human PBMC, IL-1β and IL-6 ELISA; assay type: cell-based
How it was run: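 Human PBMC (1-2 healthy donors), 150,000 cells/well, treated with test agents at 1,000 nM down to 1 nM or 0.2 nM, in duplicate. LPS at 1 ng/ml added immediately after free payload or 4 h after conjugates; IL-1β and IL-6 in supernatants measured by ELISA.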

[5] = linker/payloads as anti-VISTA conjugates

Structure (SMILES): C[C@]12C=CC(=O)C=C1CC[C@@H]1[C@@H]2[C@@H](O)C[C@@]2(C)[C@H]1C[C@H]1O[C@@H](c3ccc(CC4CC5(C4)CC(NC(=O)[C@H](CCC(=O)O)NC(=O)CNC(=O)CBr)C5)cc3)O[C@]12C(=O)CO (stereo partly drawn) [INX V, (S)-4-(2-(2-bromoacetamido)acetamido)-5-((6-(4-((6aR,6bS,7S,8aS,8bS,10R,11aR,12aS,12bS)-7-hydroxy-8b-(2-hydroxyacetyl)-6a,8a-dimethyl-4-oxo-2,4,6a,6b,7,8,8a,8b,11a,12,12a,12b-dodecahydro-1H-naphtho[2′,1′:4,5]indeno[1,2-d][1,3]dioxol-10-yl)benzyl)spiro[3.3]heptan-2-yl)amino)-5-oxopentanoic acid]
- potency in reducing IL-1β production [1]: enhanced potency
- FKBP5 induction when dosed 14 days early (conclusions) [2]: still display significant potency when dosed 14 days early in regard to FKBP5 induction
- preventing ex vivo induction of TNFα and IL-6 in PRM ([3]; Experiment 9: linker payloads as conjugates, 7 days post 0.2 mg/Kg of GC payload, supernatant 24h): remarkable long-term potency in controlling cytokine responses
- controlling cytokine response in PRM when dosed 14 days early (conclusions) [3, 5]: significant potency in controlling cytokine response in PRM when dosed 14 days early
- potency in PRM cytokine model when dosed 7 days early (conclusions) [3, 5]: remarkably more potent than payloads INX P and INX R when dosed 7 days early
- potency of conjugated linker payloads over INX J (conclusions) [4]: enhanced potency
